Results as given in the supplement of paper PMC10307832.

Experiments:
Test in all cases: relative viability (nuclei count vs DMSO), 5 days (fraction); higher = more cells survive
[1] = compound: Nc1nc2[nH]cc(CCc3ccc(C(=O)N[C@@H](CCC(=O)O)C(=O)O)cc3)c2c(=O)[nH]1 [Pemetrexed] + C[C@]1(O)C[C@@H](c2nc(-c3ccc4ccc(-c5ccccc5)nc4c3)c3c(N)nccn32)C1 [Linsitinib] (partner 1 µM)
How it was run: (§1)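 For relative viability, nuclei counts in treated wells were divided by those in vehicle wells. Lung cancer cell lines had been pin-tool dosed in 1536-well plates the day after seeding and cultured for 5 days, then fixed and stained in one step (final 0.05% Triton X-100, 1% formaldehyde, 1 ug/ml Hoechst) and imaged at 4×. Doses were one drug alone or a fixed anchor-drug dose plus five library-drug doses (not always all listed) in √10 steps, and values are duplicate-plate medians.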

[2] = compound: CC[C@H](Nc1ncnc2[nH]cnc12)c1nc2cccc(F)c2c(=O)n1-c1ccccc1 [Idelalisib] + Nc1nc2[nH]cc(CCc3ccc(C(=O)N[C@@H](CCC(=O)O)C(=O)O)cc3)c2c(=O)[nH]1 [Pemetrexed] (partner 0.2 µM)
How it was run: as §1

[3] = compound: Nc1nc2[nH]cc(CCc3ccc(C(=O)N[C@@H](CCC(=O)O)C(=O)O)cc3)c2c(=O)[nH]1 [Pemetrexed] + COc1cccc2cc(-c3nc([C@H]4CC[C@H](C(=O)O)CC4)n4ncnc(N)c34)[nH]c12 [OSI-027] (partner 0.5 µM)
How it was run: as §1

[4] = compound: CC[C@H](Nc1ncnc2[nH]cnc12)c1nc2cccc(F)c2c(=O)n1-c1ccccc1 [Idelalisib] + O=C(c1cc(Cc2n[nH]c(=O)c3ccccc23)ccc1F)N1CCN(C(=O)C2CC2)CC1 [Olaparib] (partner 8 µM)
How it was run: as §1

Row | Cell Line | relative viability ([1]; first compound 0.002 µM) | relative viability ([1]; first compound 0.006325 µM) | relative viability ([1]; first compound 0.02 µM) | relative viability ([1]; first compound 0.06325 µM) | relative viability ([1]; first compound 0.2 µM) | relative viability ([2]; first compound 0.04 µM) | relative viability ([2]; first compound 0.1265 µM) | relative viability ([2]; first compound 0.4 µM) | relative viability ([2]; first compound 1.265 µM) | relative viability ([2]; first compound 4 µM) | relative viability ([3]; first compound 0.002 µM) | relative viability ([3]; first compound 0.006325 µM) | relative viability ([3]; first compound 0.02 µM) | relative viability ([3]; first compound 0.06325 µM) | relative viability ([3]; first compound 0.2 µM) | relative viability ([4]; first compound 0.04 µM) | relative viability ([4]; first compound 0.1265 µM) | relative viability ([4]; first compound 0.4 µM) | relative viability ([4]; first compound 1.265 µM) | relative viability ([4]; first compound 4 µM)
1 | PC-3 [JPC-3] | 0.876 | 0.923 | 0.951 | 0.981 | 0.944 | 1.4 | 1.16 | 1.11 | 1.09 | 1.08 | 0.59 | 0.786 | 0.715 | 0.916 | 0.765 | 1.09 | 1.23 | 1.08 | 1.13 | 0.953
2 | NCI-H2126 | 0.696 | 0.686 | 0.718 | 0.692 | 0.729 | 0.848 | 0.739 | 0.523 | 0.769 | 0.619 | 0.601 | 0.805 | 0.808 | 0.796 | 0.691 | 0.933 | 0.916 | 0.834 | 0.972 | 0.898
3 | LU99A | 0.501 | 0.496 | 0.634 | 0.44 | 0.345 | 0.174 | 0.153 | 0.189 | 0.149 | 0.19 | 0.334 | 0.267 | 0.326 | 0.292 | 0.313 | 0.251 | 0.25 | 0.274 | 0.206 | 0.241
4 | NCI-H23 | 0.602 | 0.513 | 0.607 | 0.549 | 0.589 | 0.64 | 0.619 | 0.422 | 0.53 | 0.509 | 0.516 | 0.532 | 0.623 | 0.684 | 0.663 | 0.286 | 0.289 | 0.336 | 0.29 | 0.307
5 | PC-14 | 0.922 | 0.901 | 1.01 | 0.759 | 0.184 | 0.15 | 0.126 | 0.148 | 0.142 | 0.135 | 0.681 | 0.769 | 1.16 | 0.197 | 0.102 | 0.268 | 0.232 | 0.239 | 0.384 | 0.297
6 | HCC-44 | 0.598 | 0.625 | 0.73 | 0.665 | 0.536 | 0.684 | 0.664 | 0.652 | 0.586 | 0.687 | 0.489 | 0.623 | 0.631 | 0.484 | 0.444 | 1.05 | 0.998 | 0.962 | 1.04 | 1.05
7 | A-427 | 1.02 | 1.09 | 1.08 | 1.13 | 1.1 | 1.11 | 1 | 0.925 | 0.998 | 0.955 | 0.422 | 0.431 | 0.481 | 0.466 | 0.402 | 0.853 | 0.788 | 0.712 | 0.785 | 0.711
8 | NCI-H596 | 1.08 | 0.983 | 1.04 | 0.908 | 0.54 | 0.52 | 0.441 | 0.49 | 0.536 | 0.487 | 0.705 | 0.691 | 0.642 | 0.632 | 0.414 | 0.662 | 0.667 | 0.707 | 0.647 | 0.675
9 | RERF-LC-KJ | 0.856 | 0.845 | 0.926 | 0.912 | 0.752 | 0.46 | 0.44 | 0.46 | 0.491 | 0.448 | 0.528 | 0.508 | 0.666 | 0.546 | 0.451 | 0.873 | 0.941 | 0.864 | 0.892 | 0.814
10 | NCI-H647 |  | 0.886 | 1.29 | 1.08 | 0.332 | 0.166 | 0.144 | 0.14 | 0.154 | 0.159 | 0.467 | 0.492 | 0.806 | 0.744 | 0.318 | 0.623 | 0.602 | 0.489 | 0.614 | 0.281
11 | NCI-H1734 | 0.909 | 0.818 | 0.971 | 0.861 | 0.718 | 0.417 | 0.455 | 0.399 | 0.363 | 0.364 | 0.65 | 0.564 | 0.675 | 0.571 | 0.53 | 0.578 | 0.578 | 0.561 | 0.607 | 0.704
12 | SK-LU-1 | 1.01 | 1.03 | 1.15 | 0.951 | 0.968 | 0.86 | 1.06 | 0.943 | 0.919 | 0.967 | 0.312 | 0.319 | 0.398 | 0.352 | 0.34 | 0.584 | 0.492 | 0.41 | 0.424 | 0.464
13 | NCI-H1395 | 0.99 | 0.975 | 1.1 | 1.1 | 0.998 | 0.915 | 0.859 | 0.804 | 0.83 | 0.748 | 0.6 | 0.641 | 0.727 | 0.675 | 0.694 | 0.456 | 0.455 | 0.445 | 0.43 | 0.41
14 | COR-L23 | 0.839 | 0.863 | 1.04 | 0.294 | 0.177 | 0.186 | 0.203 | 0.199 | 0.204 | 0.182 | 0.699 | 0.781 | 0.799 | 0.275 | 0.163 | 0.368 | 0.326 | 0.348 | 0.327 | 0.316
15 | EMC-BAC-2 | 0.541 | 0.778 | 0.794 | 0.826 | 0.844 | 0.484 | 0.44 | 0.477 | 0.435 | 0.43 | 0.352 | 0.338 | 0.4 | 0.372 | 0.363 | 0.459 | 0.518 | 0.477 | 0.472 | 0.476
16 | NCI-H1355 | 0.8 | 0.801 | 0.824 | 0.881 | 0.72 | 1.03 | 1.04 | 0.926 | 1.09 | 1.01 | 0.391 | 0.389 | 0.466 | 0.509 | 0.387 | 0.78 | 0.694 | 0.632 | 0.776 | 0.673
17 | NCI-H1792 | 0.499 | 0.532 | 0.57 | 0.469 | 0.519 | 0.707 | 1.09 | 0.45 | 0.823 | 0.631 | 0.735 | 0.808 | 0.778 | 0.715 | 0.744 | 0.244 | 0.369 | 0.267 | 0.409 | 0.298
18 | NCI-H1944 | 1.09 | 1.02 | 1.17 | 1.19 | 1.21 | 0.724 | 0.58 | 0.516 | 0.484 | 0.586 |  | 0.512 | 0.43 | 0.405 | 0.403 | 0.427 | 0.395 | 0.388 | 0.394 | 0.406
19 | HOP-62 | 0.903 | 0.788 | 0.959 | 0.671 | 0.922 | 0.353 | 0.331 | 0.284 | 0.278 | 0.248 | 0.728 | 0.856 | 0.936 | 0.825 | 0.729 | 0.306 | 0.538 | 0.442 | 0.387 | 0.498
20 | NCI-H2009 | 0.979 | 1.1 | 1.3 | 1.17 | 1.11 | 0.99 | 0.996 | 1.03 | 1.09 | 0.991 | 0.573 | 0.607 | 0.749 | 0.66 | 0.683 | 0.639 | 0.712 | 0.672 | 0.74 | 0.516
